Measurements as given in the NIST ThermoML archive (doi:10.1016/j.jct.2017.05.028).

Test: wn = mass fraction of the nth substance listed
Conditions: 101 kPa, Liquid, digital holographic interferometry

CCCCCO [pentan-1-ol] + CCCCCCC
binary diffusion coefficient (288.15 K, w1 = 0.05): 1.65e-09 m2/s
binary diffusion coefficient (288.15 K, w1 = 0.15): 1.19e-09 m2/s
binary diffusion coefficient (288.15 K, w1 = 0.25): 8.88e-10 m2/s
binary diffusion coefficient (288.15 K, w1 = 0.35): 7.12e-10 m2/s
binary diffusion coefficient (288.15 K, w1 = 0.45): 5.95e-10 m2/s
binary diffusion coefficient (288.15 K, w1 = 0.55): 5.43e-10 m2/s
binary diffusion coefficient (288.15 K, w1 = 0.65): 5.49e-10 m2/s
binary diffusion coefficient (288.15 K, w1 = 0.75): 5.77e-10 m2/s
binary diffusion coefficient (288.15 K, w1 = 0.85): 6.09e-10 m2/s
binary diffusion coefficient (288.15 K, w1 = 0.95): 6.5e-10 m2/s
binary diffusion coefficient (298.15 K, w1 = 0.05): 1.88e-09 m2/s
binary diffusion coefficient (298.15 K, w1 = 0.15): 1.43e-09 m2/s
binary diffusion coefficient (298.15 K, w1 = 0.25): 1.13e-09 m2/s
binary diffusion coefficient (298.15 K, w1 = 0.35): 9.36e-10 m2/s
binary diffusion coefficient (298.15 K, w1 = 0.45): 8.38e-10 m2/s
binary diffusion coefficient (298.15 K, w1 = 0.55): 7.8e-10 m2/s
binary diffusion coefficient (298.15 K, w1 = 0.65): 7.86e-10 m2/s
binary diffusion coefficient (298.15 K, w1 = 0.75): 8.09e-10 m2/s
binary diffusion coefficient (298.15 K, w1 = 0.85): 8.4e-10 m2/s
binary diffusion coefficient (298.15 K, w1 = 0.95): 8.76e-10 m2/s
binary diffusion coefficient (308.15 K, w1 = 0.05): 2.11e-09 m2/s
binary diffusion coefficient (308.15 K, w1 = 0.15): 1.69e-09 m2/s
binary diffusion coefficient (308.15 K, w1 = 0.25): 1.38e-09 m2/s
binary diffusion coefficient (308.15 K, w1 = 0.35): 1.18e-09 m2/s
binary diffusion coefficient (308.15 K, w1 = 0.45): 1.07e-09 m2/s
binary diffusion coefficient (308.15 K, w1 = 0.55): 1.02e-09 m2/s
binary diffusion coefficient (308.15 K, w1 = 0.65): 9.99e-10 m2/s
binary diffusion coefficient (308.15 K, w1 = 0.75): 1.04e-09 m2/s
binary diffusion coefficient (308.15 K, w1 = 0.85): 1.07e-09 m2/s
binary diffusion coefficient (308.15 K, w1 = 0.95): 1.12e-09 m2/s
binary diffusion coefficient (318.15 K, w1 = 0.05): 2.42e-09 m2/s
binary diffusion coefficient (318.15 K, w1 = 0.15): 1.96e-09 m2/s
binary diffusion coefficient (318.15 K, w1 = 0.25): 1.64e-09 m2/s
binary diffusion coefficient (318.15 K, w1 = 0.35): 1.42e-09 m2/s
binary diffusion coefficient (318.15 K, w1 = 0.45): 1.33e-09 m2/s
binary diffusion coefficient (318.15 K, w1 = 0.55): 1.29e-09 m2/s
binary diffusion coefficient (318.15 K, w1 = 0.65): 1.28e-09 m2/s
binary diffusion coefficient (318.15 K, w1 = 0.75): 1.31e-09 m2/s
binary diffusion coefficient (318.15 K, w1 = 0.85): 1.36e-09 m2/s
binary diffusion coefficient (318.15 K, w1 = 0.95): 1.38e-09 m2/s

CCCCO [butan-1-ol] + CCCCCCC
binary diffusion coefficient (288.15 K, w1 = 0.05): 1.86e-09 m2/s
binary diffusion coefficient (288.15 K, w1 = 0.15): 1.39e-09 m2/s
binary diffusion coefficient (288.15 K, w1 = 0.25): 1.04e-09 m2/s
binary diffusion coefficient (288.15 K, w1 = 0.35): 8.03e-10 m2/s
binary diffusion coefficient (288.15 K, w1 = 0.45): 6.87e-10 m2/s
binary diffusion coefficient (288.15 K, w1 = 0.55): 6.25e-10 m2/s
binary diffusion coefficient (288.15 K, w1 = 0.65): 6.28e-10 m2/s
binary diffusion coefficient (288.15 K, w1 = 0.75): 6.75e-10 m2/s
binary diffusion coefficient (288.15 K, w1 = 0.85): 7.03e-10 m2/s
binary diffusion coefficient (288.15 K, w1 = 0.95): 7.54e-10 m2/s
binary diffusion coefficient (298.15 K, w1 = 0.05): 2.09e-09 m2/s
binary diffusion coefficient (298.15 K, w1 = 0.15): 1.63e-09 m2/s
binary diffusion coefficient (298.15 K, w1 = 0.25): 1.26e-09 m2/s
binary diffusion coefficient (298.15 K, w1 = 0.35): 1.06e-09 m2/s
binary diffusion coefficient (298.15 K, w1 = 0.45): 9.24e-10 m2/s
binary diffusion coefficient (298.15 K, w1 = 0.55): 8.84e-10 m2/s
binary diffusion coefficient (298.15 K, w1 = 0.65): 8.71e-10 m2/s
binary diffusion coefficient (298.15 K, w1 = 0.75): 9.06e-10 m2/s
binary diffusion coefficient (298.15 K, w1 = 0.85): 9.54e-10 m2/s
binary diffusion coefficient (298.15 K, w1 = 0.95): 1.01e-09 m2/s
binary diffusion coefficient (308.15 K, w1 = 0.05): 2.4e-09 m2/s
binary diffusion coefficient (308.15 K, w1 = 0.15): 1.92e-09 m2/s
binary diffusion coefficient (308.15 K, w1 = 0.25): 1.57e-09 m2/s
binary diffusion coefficient (308.15 K, w1 = 0.35): 1.33e-09 m2/s
binary diffusion coefficient (308.15 K, w1 = 0.45): 1.19e-09 m2/s
binary diffusion coefficient (308.15 K, w1 = 0.55): 1.13e-09 m2/s
binary diffusion coefficient (308.15 K, w1 = 0.65): 1.11e-09 m2/s
binary diffusion coefficient (308.15 K, w1 = 0.75): 1.13e-09 m2/s
binary diffusion coefficient (308.15 K, w1 = 0.85): 1.2e-09 m2/s
binary diffusion coefficient (308.15 K, w1 = 0.95): 1.26e-09 m2/s
binary diffusion coefficient (318.15 K, w1 = 0.05): 2.73e-09 m2/s
binary diffusion coefficient (318.15 K, w1 = 0.15): 2.24e-09 m2/s
binary diffusion coefficient (318.15 K, w1 = 0.25): 1.87e-09 m2/s
binary diffusion coefficient (318.15 K, w1 = 0.35): 1.6e-09 m2/s
binary diffusion coefficient (318.15 K, w1 = 0.45): 1.49e-09 m2/s
binary diffusion coefficient (318.15 K, w1 = 0.55): 1.42e-09 m2/s
binary diffusion coefficient (318.15 K, w1 = 0.65): 1.4e-09 m2/s
binary diffusion coefficient (318.15 K, w1 = 0.75): 1.44e-09 m2/s
binary diffusion coefficient (318.15 K, w1 = 0.85): 1.48e-09 m2/s
binary diffusion coefficient (318.15 K, w1 = 0.95): 1.54e-09 m2/s
